Data: ChEMBL document CHEMBL5038592, “Discovery of MK-8153, a Potent and Selective ROMK Inhibitor and Novel Diuretic/Natriuretic” (J Med Chem, 2021)
The source made the active and inactive calls. The calls are words filed in the database; no cut-off is given here.

Experiments:
[1] = Oral bioavailability in rhesus monkey at 2 mg/kg; assay type: ADME, organism-based, Macaca mulatta; settings: in vivo
[2] = Metabolic stability in Beagle dog hepatocytes by LC/MS analysis; assay type: ADME, cell-based, Canis lupus familiaris, Hepatocyte
[3] = Metabolic stability in rhesus monkey liver microsomes by LC/MS analysis; assay type: ADME, Macaca mulatta, Microsome
Cytochrome P450 2D6 = Cytochrome P450 2D6 (Homo sapiens, UniProt P10635); assay: Inhibition of CYP2D6 (unknown origin)
Chain of Cytochrome P450 2D6 (P10635 whole entry): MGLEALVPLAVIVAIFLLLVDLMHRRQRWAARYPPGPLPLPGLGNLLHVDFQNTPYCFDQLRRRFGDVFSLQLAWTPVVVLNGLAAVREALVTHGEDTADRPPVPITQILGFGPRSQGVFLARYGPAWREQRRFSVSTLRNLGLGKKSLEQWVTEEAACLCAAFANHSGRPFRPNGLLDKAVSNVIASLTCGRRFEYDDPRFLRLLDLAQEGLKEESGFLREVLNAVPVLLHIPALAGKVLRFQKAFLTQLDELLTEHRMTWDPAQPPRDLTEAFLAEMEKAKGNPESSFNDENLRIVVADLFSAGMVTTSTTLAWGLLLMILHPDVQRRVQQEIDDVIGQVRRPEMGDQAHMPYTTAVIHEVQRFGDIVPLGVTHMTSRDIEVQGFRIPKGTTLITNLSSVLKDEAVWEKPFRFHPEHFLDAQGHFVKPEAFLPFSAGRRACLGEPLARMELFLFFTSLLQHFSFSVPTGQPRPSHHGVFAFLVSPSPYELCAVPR

Rattus norvegicus [4] = assay: Diuretic activity in orally dosed spontaneous hypertensive rat assessed as urine volume treated for 3 days measured after 0 to 4 hrs of dosing; assay type: functional, organism-based; settings: time 3.0 day
[5] = AUC (0 to infinity) in Wistar Han rat at 2 mg/kg, po or 1 mg/kg, iv; assay type: ADME, organism-based; design: dose 2 mg/kg; settings: in vivo
[6] = Terminal half life in rhesus monkey at 2 mg/kg, po or 1 mg/kg, iv; assay type: ADME, organism-based, Macaca mulatta; settings: in vivo, read-out: beta t1/2 (converted)
[7] = target: T1, Inward rectifier potassium channel 13 (Homo sapiens, UniProt O60928); assay: Inhibition of Kir7.1 (unknown origin)
T1 sequence (O60928 whole entry): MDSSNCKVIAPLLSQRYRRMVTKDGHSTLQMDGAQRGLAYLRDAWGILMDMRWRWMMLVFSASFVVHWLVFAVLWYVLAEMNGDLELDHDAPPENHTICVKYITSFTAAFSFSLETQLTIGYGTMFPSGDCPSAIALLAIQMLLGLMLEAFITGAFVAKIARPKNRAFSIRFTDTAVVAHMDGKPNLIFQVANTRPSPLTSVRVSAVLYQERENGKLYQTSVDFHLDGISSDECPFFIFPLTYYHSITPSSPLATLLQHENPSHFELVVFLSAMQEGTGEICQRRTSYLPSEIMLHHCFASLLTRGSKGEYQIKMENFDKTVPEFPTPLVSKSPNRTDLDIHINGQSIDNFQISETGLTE

[8] = Clearance in rhesus monkey at 2 mg/kg, po or 1 mg/kg, iv; assay type: ADME, organism-based, Macaca mulatta; settings: in vivo
[9] = Apparent permeability in pig LLC-PK1 cells
[10] = Toxicity in rat assessed as tolerance at 5 to 300 mg/kg treated for 7 days; assay type: organism-based; settings: in vivo, 168 h, dose 5-300 mg/kg, time 7 day
[11] = target: Sodium channel protein type 5 subunit alpha (Homo sapiens, UniProt Q14524); assay: Inhibition of Nav1.5 (unknown origin)
[12] = Metabolic stability in Beagle dog liver microsomes by LC/MS analysis; assay type: ADME, Canis lupus familiaris, Microsome
Rattus norvegicus [13] = assay: Antihypertensive activity in spontaneous hypertensive rat model assessed as decrease in systolic blood pressure at 1 mg/kg, po QD observed for 3 days; assay type: functional, organism-based; settings: time 3.0 day
[14] = AUC (0 to infinity) in Beagle dog at 2 mg/kg, po or 1 mg/kg, iv; assay type: ADME, organism-based, Canis lupus familiaris; design: dose 2 mg/kg; settings: in vivo
[15] = Drug metabolism in Wistar Han rat hepatocytes assessed as metabolite formation by LC/MS analysis; assay type: ADME, cell-based, Hepatocyte
[16] = target: T2, ATP-sensitive inward rectifier potassium channel 1 (Rattus norvegicus, UniProt P35560); assay: Inhibition of rat Kir1.1 expressed in HEK293 cells by electrophysiology assay; assay type: cell-based
T2 sequence (P35560 whole entry): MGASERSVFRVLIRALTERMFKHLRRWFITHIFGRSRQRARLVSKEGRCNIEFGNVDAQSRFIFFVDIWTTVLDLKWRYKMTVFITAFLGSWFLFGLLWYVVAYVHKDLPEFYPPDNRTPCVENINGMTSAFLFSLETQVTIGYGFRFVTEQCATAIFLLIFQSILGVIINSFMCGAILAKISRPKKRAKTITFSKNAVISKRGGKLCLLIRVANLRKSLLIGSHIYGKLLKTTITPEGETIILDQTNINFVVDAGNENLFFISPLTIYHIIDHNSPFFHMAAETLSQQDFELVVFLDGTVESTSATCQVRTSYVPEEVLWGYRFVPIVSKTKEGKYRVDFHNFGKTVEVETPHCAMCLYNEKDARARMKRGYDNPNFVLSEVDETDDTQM

[17] = Cmax in Beagle dog at 2 mg/kg, po or 1 mg/kg, iv; assay type: ADME, organism-based, Canis lupus familiaris; design: dose 2 mg/kg; settings: in vivo
[18] = Cmax in Wistar Han rat at 2 mg/kg, po or 1 mg/kg, iv; assay type: ADME, organism-based; design: dose 2 mg/kg; settings: in vivo
[19] = Tmax in Wistar Han rat at 2 mg/kg, po or 1 mg/kg, iv; assay type: ADME, organism-based; settings: in vivo
[20] = Oral bioavailability in Beagle dog at 2 mg/kg; assay type: ADME, organism-based, Canis lupus familiaris; settings: in vivo
[21] = Inhibition of Kir2.1 (unknown origin); design: species or system Homo sapiens
Rattus norvegicus [22] = assay: Diuretic activity in orally dosed spontaneous hypertensive rat assessed as urine volume treated for 3 days measured after 0 to 24 hrs of dosing; assay type: functional, organism-based; settings: time 3.0 day
[23] = Drug metabolism in human hepatocytes assessed as metabolite formation by LC/MS analysis; assay type: ADME, cell-based, Hepatocyte
[24] = Metabolic stability in human hepatocytes by LC/MS analysis; assay type: ADME, cell-based, Hepatocyte
[25] = Effective half life in Wistar Han rat at 2 mg/kg, po or 1 mg/kg, iv; assay type: ADME, organism-based; settings: in vivo, read-out: t1/2eff (converted)
Cytochrome P450 2C9 = Cytochrome P450 2C9 (Homo sapiens, UniProt P11712); assay: Inhibition of CYP2C9 (unknown origin)
Chain of Cytochrome P450 2C9 (P11712 whole entry): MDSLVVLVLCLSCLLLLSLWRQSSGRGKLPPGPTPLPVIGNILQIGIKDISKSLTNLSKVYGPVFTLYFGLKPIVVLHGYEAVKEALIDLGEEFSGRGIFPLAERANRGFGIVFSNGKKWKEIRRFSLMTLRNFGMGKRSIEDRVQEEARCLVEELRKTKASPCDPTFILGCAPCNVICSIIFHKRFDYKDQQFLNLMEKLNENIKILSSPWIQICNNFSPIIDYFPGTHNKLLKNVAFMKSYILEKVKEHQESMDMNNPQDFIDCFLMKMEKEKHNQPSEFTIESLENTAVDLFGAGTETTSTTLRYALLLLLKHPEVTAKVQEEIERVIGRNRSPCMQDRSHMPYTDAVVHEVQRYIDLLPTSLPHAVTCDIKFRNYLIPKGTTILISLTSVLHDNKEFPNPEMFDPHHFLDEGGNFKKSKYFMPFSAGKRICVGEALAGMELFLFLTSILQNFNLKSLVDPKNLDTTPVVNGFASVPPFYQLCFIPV

[26] = Toxicity in dog assessed as tolerance at 0.3 to 6 mg/kg treated for 7 days; assay type: organism-based, Canis lupus familiaris; settings: in vivo, 168 h, dose 0.3-6 mg/kg, time 7 day
[27] = Toxicity in rat assessed as histological changes at 5 to 300 mg/kg treated for 7 days; assay type: organism-based; settings: in vivo, 168 h, dose 5-300 mg/kg, time 7 day
[28] = Drug excretion in bile-duct cannulated rat assessed as urinary excretion; assay type: ADME; settings: urine, read-out: Drug excretion
[29] = target: Voltage-dependent L-type calcium channel subunit alpha-1C (Homo sapiens, UniProt Q13936); assay: Inhibition of Cav1.2 (unknown origin)
Chain of Voltage-dependent L-type calcium channel subunit alpha-1C (Q13936 whole entry): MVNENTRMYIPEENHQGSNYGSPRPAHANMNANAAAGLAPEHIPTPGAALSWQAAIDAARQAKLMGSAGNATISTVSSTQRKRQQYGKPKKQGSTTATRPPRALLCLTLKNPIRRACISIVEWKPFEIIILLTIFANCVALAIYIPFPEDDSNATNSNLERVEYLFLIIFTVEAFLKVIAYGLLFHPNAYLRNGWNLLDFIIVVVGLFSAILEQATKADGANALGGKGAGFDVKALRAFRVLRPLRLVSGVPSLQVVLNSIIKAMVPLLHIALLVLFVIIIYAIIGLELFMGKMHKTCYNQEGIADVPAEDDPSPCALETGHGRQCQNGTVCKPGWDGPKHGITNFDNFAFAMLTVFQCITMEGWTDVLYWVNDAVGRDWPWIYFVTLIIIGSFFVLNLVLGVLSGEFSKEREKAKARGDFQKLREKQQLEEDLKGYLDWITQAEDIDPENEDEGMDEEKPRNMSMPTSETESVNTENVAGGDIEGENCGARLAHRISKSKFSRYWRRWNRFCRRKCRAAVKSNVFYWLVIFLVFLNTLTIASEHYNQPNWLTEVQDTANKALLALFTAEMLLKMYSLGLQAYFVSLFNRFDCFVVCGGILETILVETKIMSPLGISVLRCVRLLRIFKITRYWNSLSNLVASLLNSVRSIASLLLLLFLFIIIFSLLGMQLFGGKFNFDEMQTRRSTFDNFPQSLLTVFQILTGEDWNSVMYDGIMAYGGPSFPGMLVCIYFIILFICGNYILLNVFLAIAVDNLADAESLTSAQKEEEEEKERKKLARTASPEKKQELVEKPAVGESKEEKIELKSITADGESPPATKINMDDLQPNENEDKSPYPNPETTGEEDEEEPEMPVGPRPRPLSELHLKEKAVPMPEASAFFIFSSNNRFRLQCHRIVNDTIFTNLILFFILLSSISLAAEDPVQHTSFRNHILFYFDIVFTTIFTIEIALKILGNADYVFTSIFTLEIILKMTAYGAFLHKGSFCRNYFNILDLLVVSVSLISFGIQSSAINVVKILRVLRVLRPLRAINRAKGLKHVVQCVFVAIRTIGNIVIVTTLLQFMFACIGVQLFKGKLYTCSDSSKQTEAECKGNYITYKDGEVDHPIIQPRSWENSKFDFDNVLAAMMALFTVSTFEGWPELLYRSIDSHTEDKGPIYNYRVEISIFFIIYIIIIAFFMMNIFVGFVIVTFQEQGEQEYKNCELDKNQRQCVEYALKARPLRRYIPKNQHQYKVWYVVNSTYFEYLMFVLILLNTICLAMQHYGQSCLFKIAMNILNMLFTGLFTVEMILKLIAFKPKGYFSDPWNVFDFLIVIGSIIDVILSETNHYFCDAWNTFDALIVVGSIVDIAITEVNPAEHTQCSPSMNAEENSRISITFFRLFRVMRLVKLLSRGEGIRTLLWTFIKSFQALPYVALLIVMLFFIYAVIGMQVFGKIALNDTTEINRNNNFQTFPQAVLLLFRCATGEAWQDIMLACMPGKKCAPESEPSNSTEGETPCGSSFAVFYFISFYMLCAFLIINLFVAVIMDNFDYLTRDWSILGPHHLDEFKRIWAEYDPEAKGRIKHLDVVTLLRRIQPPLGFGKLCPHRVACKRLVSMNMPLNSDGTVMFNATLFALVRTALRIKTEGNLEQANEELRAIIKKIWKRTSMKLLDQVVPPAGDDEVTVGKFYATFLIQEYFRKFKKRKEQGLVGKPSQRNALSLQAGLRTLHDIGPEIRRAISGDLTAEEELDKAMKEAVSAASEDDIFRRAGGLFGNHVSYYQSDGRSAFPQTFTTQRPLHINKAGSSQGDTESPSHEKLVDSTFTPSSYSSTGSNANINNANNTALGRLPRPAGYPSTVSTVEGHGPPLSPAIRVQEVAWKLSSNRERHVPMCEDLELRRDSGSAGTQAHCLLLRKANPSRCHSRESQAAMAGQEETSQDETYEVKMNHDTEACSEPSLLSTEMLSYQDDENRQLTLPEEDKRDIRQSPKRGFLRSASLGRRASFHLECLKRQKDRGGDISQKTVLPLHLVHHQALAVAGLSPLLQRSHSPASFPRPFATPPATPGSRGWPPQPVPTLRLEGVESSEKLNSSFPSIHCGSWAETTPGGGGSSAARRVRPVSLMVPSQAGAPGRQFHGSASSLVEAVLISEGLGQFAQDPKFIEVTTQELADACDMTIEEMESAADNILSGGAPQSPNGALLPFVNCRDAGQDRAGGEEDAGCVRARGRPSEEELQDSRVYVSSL

[30] = Tmax in rhesus monkey at 2 mg/kg, po or 1 mg/kg, iv; assay type: ADME, organism-based, Macaca mulatta; settings: in vivo
[31] = Metabolic stability in Wistar Han rat hepatocytes by LC/MS analysis; assay type: ADME, cell-based, Hepatocyte
Cytochrome P450 3A4 = Cytochrome P450 3A4 (Homo sapiens, UniProt P08684); assay: Inhibition of CYP3A4 (unknown origin)
Chain of Cytochrome P450 3A4 (P08684 whole entry): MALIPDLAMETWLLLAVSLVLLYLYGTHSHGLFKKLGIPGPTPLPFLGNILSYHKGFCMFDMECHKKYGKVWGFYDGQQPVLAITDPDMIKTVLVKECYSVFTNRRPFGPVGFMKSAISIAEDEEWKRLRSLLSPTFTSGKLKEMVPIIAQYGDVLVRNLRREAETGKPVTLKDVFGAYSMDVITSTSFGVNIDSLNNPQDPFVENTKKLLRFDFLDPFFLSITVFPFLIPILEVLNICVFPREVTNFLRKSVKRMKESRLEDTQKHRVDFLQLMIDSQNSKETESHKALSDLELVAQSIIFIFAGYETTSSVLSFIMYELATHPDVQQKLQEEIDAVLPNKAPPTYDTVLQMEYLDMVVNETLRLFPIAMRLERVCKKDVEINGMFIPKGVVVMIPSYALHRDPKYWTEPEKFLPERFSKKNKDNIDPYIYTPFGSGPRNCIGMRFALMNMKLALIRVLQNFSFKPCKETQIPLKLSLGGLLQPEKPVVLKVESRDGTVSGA

Rattus norvegicus [32] = assay: Diuretic activity in orally dosed spontaneous hypertensive rat assessed as increase in sodium excretion treated for 3 days measured after 0 to 24 hrs of dosing; assay type: functional, organism-based; settings: time 3.0 day
[33] = Tmax in Beagle dog at 2 mg/kg, po or 1 mg/kg, iv; assay type: ADME, organism-based, Canis lupus familiaris; settings: in vivo
[34] = Volume of distribution at steady state in Wistar Han rat at 2 mg/kg, po or 1 mg/kg, iv; assay type: ADME, organism-based; settings: in vivo, read-out: Vdss
[35] = Clearance in Wistar Han rat at 2 mg/kg, po or 1 mg/kg, iv; assay type: ADME, organism-based; settings: in vivo
[36] = Drug metabolism in Beagle dog hepatocytes assessed as metabolite formation by LC/MS analysis; assay type: ADME, cell-based, Canis lupus familiaris, Hepatocyte
[37] = Terminal half life in Wistar Han rat at 2 mg/kg, po or 1 mg/kg, iv; assay type: ADME, organism-based; settings: in vivo, read-out: beta t1/2 (converted)

Q: With `CC1=C(N2CCC3(CCN(C[C@H](O)c4ccc5c(c4C)COC5=O)CC3)C2=O)COC1=O` as the compound, how does the bioavailability [1] read?
A: 3.4%

Q: What about the Stability [2] of the same compound?
A: Stable

Q: And the Stability [3]?
A: Stable

Q: And the IC50 (Cytochrome P450 2D6)?
A: > 50 µM

Q: What about the Activity (Rattus norvegicus [4]) of the same compound?
A: Dose-Dependent Effect

Q: And the AUC(0-inf) [5]?
A: 1.4 µM·h

Q: What about the half-life [6] of the same compound?
A: 3.3 h

Q: What about the IC50 [7] of the same compound?
A: > 100 µM

Q: What about the clearance [8] of the same compound?
A: 58.3 mL/min/kg

Q: And the Papp [9]?
A: 21 ×10⁻⁶ cm/s

Q: What about the Activity [10] of the same compound?
A: Non-Toxic

Q: And the IC50 [11]?
A: > 30 µM

Q: And the Stability [12]?
A: Stable

Q: What about the Activity (Rattus norvegicus [13]) of the same compound?
A: Active

Q: What about the AUC(0-inf) [14] of the same compound?
A: 15.1 µM·h

Q: What about the Drug metabolism [15] of the same compound?
A: Metabolite_Notdetected

Q: What about the IC50 [16] of the same compound?
A: 0.0028 µM

Q: What about the Cmax [17] of the same compound?
A: 2400 nM

Q: And the Cmax [18]?
A: 310 nM

Q: And the Tmax [19]?
A: 0.5 h

Q: What about the bioavailability [20] of the same compound?
A: 100%

Q: What about the IC50 [21] of the same compound?
A: > 100 µM

Q: What about the Activity (Rattus norvegicus [22]) of the same compound?
A: Dose-Dependent Effect

Q: What about the Drug metabolism [23] of the same compound?
A: Metabolite_Notdetected

Q: What about the Stability [24] of the same compound?
A: Stable

Q: What about the half-life [25] of the same compound?
A: 1.8 h

Q: What about the IC50 (Cytochrome P450 2C9) of the same compound?
A: > 50 µM

Q: And the Activity [26]?
A: Non-Toxic

Q: And the Activity [27]?
A: Non-Toxic

Q: And the dose excreted [28]?
A: 66%

Q: And the IC50 [29]?
A: > 30 µM

Q: What about the Tmax [30] of the same compound?
A: 0.5 h

Q: What about the Stability [31] of the same compound?
A: Stable

Q: What about the IC50 (Cytochrome P450 3A4) of the same compound?
A: > 50 µM

Q: And the Activity (Rattus norvegicus [32])?
A: Dose-Dependent Effect

Q: What about the Tmax [33] of the same compound?
A: 0.8 h

Q: What about the Vd [34] of the same compound?
A: 14.7 L/kg

Q: And the clearance [35]?
A: 29.4 mL/min/kg

Q: What about the Drug metabolism [36] of the same compound?
A: Metabolite_Notdetected

Q: What about the half-life [37] of the same compound?
A: 3.6 h
